Assay results taken from patent US12435044B2, “Pyridazinone herbicides and pyridazinone intermediates used to prepare a herbicide” (FMC Corporation, priority 2018, dated 2025).

Columns and labels:
Assay type in all cases: in vivo
[1] = test system: Canada thistle (Cirsium arvense); assay: Test C postemergence greenhouse test; details: scale 0 to 100
From the text: (§1) Seeds of plant species selected from blackgrass (Alopecurus myosuroides), ryegrass, Italian (Lolium multiflorum), wheat, winter (winter wheat, Triticum aestivum), galium (catchweed bedstraw, Galium aparine), corn (Zea mays), crabgrass, large (Digitaria sanguinalis), foxtail, giant (Setaria faberii), johnsongrass (Sorghum halepense), lambsquarters (Chenopodium album), morningglory (Ipomoea coccinea), nutsedge, yellow (Cyperus esculentus), pigweed (Amaranthus retroflexus), ragweed (common ragweed, Ambrosia elatior), soybean (Glycine max), barnyardgrass (Echinochloa crus-galli), oilseed rape (Brassica napus), waterhemp (common waterhemp, Amaranthus rudis), pigweed, palmer (Amaranthus palmeri), kochia (Kochia scoparia), oat, wild (Avena fatua), surinam grass (Brachiaria decumbens), windgrass (Apera spica-venti), poinsettia, wild (Euphorbia heterophylla) and velvetleaf (Abutilon theophrasti) were planted into a silt loam soil and treated preemergence with test chemicals formulated in a non-phytotoxic solvent mixture which included a surfactant.
(§2) At the same time, plants selected from these crop and weed species and also chickweed (common chickweed, Stellaria media), buckwheat, wild (Polygonum convolvulus), mustard, wild (Sinapis arvensis), field poppy (Papaver rhoeas), field violet (Viola arvensis), nightshade (eastern black nightshade, Solanum ptycanthum), speedwell (bird's-eye speedwell, Veronica persica), horseweed (Conyza canadensis), cutleaf geranium (Geranium dissectum), and Canada thistle (Cirsium arvense) were planted in pots containing Redi-Earth® planting medium (Scotts Company, 14111 Scottslawn Road, Marysville, Ohio 43041) comprising spaghnum peat moss, vermiculite, wetting agent and starter nutrients and treated with postemergence applications of test chemicals formulated in the same manner. Plants ranged in height from 2 to 18 cm (1- to 4-leaf stage) for postemergence treatments. Treated plants and controls were maintained in a greenhouse for 13 to 21 d, after which time all species were compared to controls and visually evaluated. Plant response ratings, summarized in Table C-1 (postemergence) and C-2 (preemergence), are based on a scale of 0 to 100 where 0 is no effect and 100 is complete control. A dash (-) response means no test result.

[2] = test system: speedwell (bird's-eye speedwell, Veronica persica); assay: Test C postemergence greenhouse test; details: scale 0 to 100
From the text: as §1, §2

[3] = test system: mustard, wild (Sinapis arvensis); assay: Test C postemergence greenhouse test; details: scale 0 to 100
From the text: as §1, §2

[4] = test system: field violet (Viola arvensis); assay: Test C postemergence greenhouse test; details: scale 0 to 100
From the text: as §1, §2

[5] = test system: cutleaf geranium (Geranium dissectum); assay: Test C postemergence greenhouse test; details: scale 0 to 100
From the text: as §1, §2

[6] = test system: buckwheat, wild (Polygonum convolvulus); assay: Test C postemergence greenhouse test; details: scale 0 to 100
From the text: as §1, §2

[7] = test system: foxtail, giant (Setaria faberii); assay: Test E pre-/postemergence greenhouse test
From the text: (§3) Seeds of plant species selected from corn (Zea mays), soybean (Glycine max), velvetleaf (Abutilon theophrasti), lambsquarters (Chenopodium album), poinsettia, wild (Euphorbia heterophylla), pigweed, palmer (Amaranthus palmeri), waterhemp (common waterhemp, Amaranthus rudis), surinam grass (Brachiaria decumbens), crabgrass, large (Digitaria sanguinalis), crabgrass, Brazil (Digitaria horizontalis), panicum, fall (Panicum dichotomiflorum), foxtail, giant (Setaria faberii), foxtail, green (Setaria viridis), goosegrass (Eleusine indica), johnsongrass (Sorghum halepense), ragweed (common ragweed, Ambrosia elatior), barnyardgrass (Echinochloa crus-galli), sandbur (southern sandbur, Cenchrus echinatus), arrowleaf sida (Sida rhombifolia), ryegrass, Italian (Lolium multiflorum), dayflower, VA (Virginia (VA) dayflower, Commelina virginica), field bindweed (Convolvulus arvensis), morningglory (Ipomoea coccinea), horseweed (Conyza canadensis), kochia (Kochia scoparia), nutsedge, yellow (Cyperus esculentus) and hairy beggarticks (Bidenspilosa), were planted into a silt loam soil and treated preemergence with test chemicals formulated in a non-phytotoxic solvent mixture which included a surfactant.
(§4) At the same time, plants selected from these crop and weed species and also waterhemp_RES1, (ALS & Triazine resistant common waterhemp, Amaranthus rudis), and waterhemp_RES2, (ALS & HPPD resistant common waterhemp, Amaranthus rudis) were planted in pots containing Redi-Earth® planting medium (Scotts Company, 14111 Scottslawn Road, Marysville, Ohio 43041) comprising spaghnum peat moss, vermiculite, wetting agent and starter nutrients were treated with postemergence applications of test chemicals formulated in the same manner. Plants ranged in height from 2 to 18 cm for postemergence treatments (1- to 4-leaf stage). Treated plants and controls were maintained in a greenhouse for 14 to 21 d, after which time all species were compared to controls and visually evaluated. Plant response ratings, summarized in Table E, are based on a scale of 0 to 100 where 0 is no effect and 100 is complete control. A dash (-) response means no test result.

[8] = test system: velvetleaf (Abutilon theophrasti); assay: Test E pre-/postemergence greenhouse test
From the text: as §3, §4

soybean (Glycine max) = assay: Test E pre-/postemergence greenhouse test
From the text: as §3, §4

[9] = test system: waterhemp (common waterhemp, Amaranthus rudis); assay: Test E pre-/postemergence greenhouse test
From the text: as §3, §4

[10] = test system: horseweed (Conyza canadensis); assay: Test E pre-/postemergence greenhouse test
From the text: as §3, §4

SMILES: Cc1ccc2ccc(Cl)cc2c1-c1c(O)c(Cl)nn(C)c1=O [Cpd. No. 22]
- Plant response rating, Canada Thistle ([1]; 16 g ai/ha): 80
- Plant response rating, Canada Thistle ([1]; 31 g ai/ha): 80
- Plant response rating, Canada Thistle ([1]; 62 g ai/ha): 100
- Plant response rating, Canada Thistle ([1]; 125 g ai/ha): 100
- Plant response rating, Speedwell ([2]; 16 g ai/ha): 50
- Plant response rating, Speedwell ([2]; 31 g ai/ha): 60
- Plant response rating, Speedwell ([2]; 62 g ai/ha): 75
- Plant response rating, Speedwell ([2]; 125 g ai/ha): 90
- Plant response rating, Mustard, Wild ([3]; 16 g ai/ha): 75
- Plant response rating, Mustard, Wild ([3]; 31 g ai/ha): 75
- Plant response rating, Mustard, Wild ([3]; 62 g ai/ha): 100
- Plant response rating, Mustard, Wild ([3]; 125 g ai/ha): 100
- Plant response rating, Field Violet ([4]; 16 g ai/ha): 60
- Plant response rating, Field Violet ([4]; 31 g ai/ha): 70
- Plant response rating, Field Violet ([4]; 62 g ai/ha): 75
- Plant response rating, Field Violet ([4]; 125 g ai/ha): 80
- Plant response rating, Cutleaf Geranium ([5]; 16 g ai/ha): 70
- Plant response rating, Cutleaf Geranium ([5]; 31 g ai/ha): 80
- Plant response rating, Cutleaf Geranium ([5]; 62 g ai/ha): 85
- Plant response rating, Cutleaf Geranium ([5]; 125 g ai/ha): 85
- Plant response rating, Buckwheat, Wild ([6]; 16 g ai/ha): 95
- Plant response rating, Buckwheat, Wild ([6]; 31 g ai/ha): 100
- Plant response rating, Buckwheat, Wild ([6]; 62 g ai/ha): 100
- Plant response rating, Buckwheat, Wild ([6]; 125 g ai/ha): 100

SMILES: Cc1ccc2ccc(C)c(-c3c(O)c(Cl)nn(C)c3=O)c2c1 [Cpd. No. 20, 6-chloro-4-(2,7-dimethyl-1-naphthalenyl)-5-hydroxy-2-methyl-3(2H)-pyridazinone]
- Plant response rating, Foxtail, Giant ([7]; Preemergence, 16 g ai/ha): 10
- Plant response rating, Foxtail, Giant ([7]; Preemergence, 31 g ai/ha): 60
- Plant response rating, Foxtail, Giant ([7]; Preemergence, 62 g ai/ha): 90
- Plant response rating, Foxtail, Giant ([7]; Preemergence, 125 g ai/ha): 98
- Plant response rating, Velvetleaf ([8]; Preemergence, 16 g ai/ha): 50
- Plant response rating, Velvetleaf ([8]; Preemergence, 31 g ai/ha): 80
- Plant response rating, Velvetleaf ([8]; Preemergence, 62 g ai/ha): 90
- Plant response rating, Velvetleaf ([8]; Preemergence, 125 g ai/ha): 100
- Plant response rating, Soybean (soybean (Glycine max); Postemergence, 16 g ai/ha): 10
- Plant response rating, Soybean (soybean (Glycine max); Postemergence, 31 g ai/ha): 15
- Plant response rating, Soybean (soybean (Glycine max); Postemergence, 62 g ai/ha): 30
- Plant response rating, Soybean (soybean (Glycine max); Postemergence, 125 g ai/ha): 40
- Plant response rating, Soybean (soybean (Glycine max); Preemergence, 16 g ai/ha): 0
- Plant response rating, Soybean (soybean (Glycine max); Preemergence, 62 g ai/ha): 15
- Plant response rating, Soybean (soybean (Glycine max); Preemergence, 125 g ai/ha): 0
- Plant response rating, Waterhemp ([9]; Postemergence, 16 g ai/ha): 75
- Plant response rating, Waterhemp ([9]; Postemergence, 31 g ai/ha): 75
- Plant response rating, Waterhemp ([9]; Postemergence, 62 g ai/ha): 95
- Plant response rating, Waterhemp ([9]; Postemergence, 125 g ai/ha): 90
- Plant response rating, Waterhemp ([9]; Preemergence, 16 g ai/ha): 60
- Plant response rating, Waterhemp ([9]; Preemergence, 31 g ai/ha): 70
- Plant response rating, Waterhemp ([9]; Preemergence, 62 g ai/ha): 98
- Plant response rating, Waterhemp ([9]; Preemergence, 125 g ai/ha): 100
- Plant response rating, Horseweed ([10]; Postemergence, 16 g ai/ha): 80
- Plant response rating, Horseweed ([10]; Postemergence, 31 g ai/ha): 75
- Plant response rating, Horseweed ([10]; Postemergence, 62 g ai/ha): 85
- Plant response rating, Horseweed ([10]; Postemergence, 125 g ai/ha): 80

SMILES: Cc1cc(Cl)c2ccccc2c1-c1c(O)c(Cl)nn(C)c1=O [Cpd. No. 65]
- Plant response rating, Foxtail, Giant ([7]; Postemergence, 16 g ai/ha): 70
- Plant response rating, Foxtail, Giant ([7]; Postemergence, 31 g ai/ha): 88
- Plant response rating, Foxtail, Giant ([7]; Postemergence, 62 g ai/ha): 90
- Plant response rating, Foxtail, Giant ([7]; Postemergence, 125 g ai/ha): 95
- Plant response rating, Foxtail, Giant ([7]; Preemergence, 16 g ai/ha): 5
- Plant response rating, Foxtail, Giant ([7]; Preemergence, 31 g ai/ha): 78
- Plant response rating, Foxtail, Giant ([7]; Preemergence, 62 g ai/ha): 90
- Plant response rating, Foxtail, Giant ([7]; Preemergence, 125 g ai/ha): 100
- Plant response rating, Velvetleaf ([8]; Postemergence, 16 g ai/ha): 75
- Plant response rating, Velvetleaf ([8]; Postemergence, 31 g ai/ha): 90
- Plant response rating, Velvetleaf ([8]; Postemergence, 62 g ai/ha): 85
- Plant response rating, Velvetleaf ([8]; Postemergence, 125 g ai/ha): 90
- Plant response rating, Velvetleaf ([8]; Preemergence, 16 g ai/ha): 75
- Plant response rating, Velvetleaf ([8]; Preemergence, 31 g ai/ha): 100
- Plant response rating, Velvetleaf ([8]; Preemergence, 62 g ai/ha): 100
- Plant response rating, Velvetleaf ([8]; Preemergence, 125 g ai/ha): 100
- Plant response rating, Soybean (soybean (Glycine max); Postemergence, 16 g ai/ha): 70
- Plant response rating, Soybean (soybean (Glycine max); Postemergence, 31 g ai/ha): 80
- Plant response rating, Soybean (soybean (Glycine max); Postemergence, 62 g ai/ha): 90
- Plant response rating, Soybean (soybean (Glycine max); Postemergence, 125 g ai/ha): 93
- Plant response rating, Soybean (soybean (Glycine max); Preemergence, 16 g ai/ha): 23
- Plant response rating, Soybean (soybean (Glycine max); Preemergence, 31 g ai/ha): 13
- Plant response rating, Soybean (soybean (Glycine max); Preemergence, 62 g ai/ha): 15
- Plant response rating, Soybean (soybean (Glycine max); Preemergence, 125 g ai/ha): 43
- Plant response rating, Waterhemp ([9]; Postemergence, 16 g ai/ha): 83
- Plant response rating, Waterhemp ([9]; Postemergence, 31 g ai/ha): 88
- Plant response rating, Waterhemp ([9]; Postemergence, 62 g ai/ha): 99
- Plant response rating, Waterhemp ([9]; Postemergence, 125 g ai/ha): 97
- Plant response rating, Waterhemp ([9]; Preemergence, 16 g ai/ha): 75
- Plant response rating, Waterhemp ([9]; Preemergence, 31 g ai/ha): 90
- Plant response rating, Waterhemp ([9]; Preemergence, 62 g ai/ha): 99
- Plant response rating, Waterhemp ([9]; Preemergence, 125 g ai/ha): 99
- Plant response rating, Horseweed ([10]; Postemergence, 16 g ai/ha): 65
- Plant response rating, Horseweed ([10]; Postemergence, 31 g ai/ha): 75
- Plant response rating, Horseweed ([10]; Postemergence, 62 g ai/ha): 85
- Plant response rating, Horseweed ([10]; Postemergence, 125 g ai/ha): 85
- Plant response rating, Horseweed ([10]; Preemergence, 16 g ai/ha): 100
- Plant response rating, Horseweed ([10]; Preemergence, 31 g ai/ha): 100
- Plant response rating, Horseweed ([10]; Preemergence, 62 g ai/ha): 100
- Plant response rating, Horseweed ([10]; Preemergence, 125 g ai/ha): 100
- Plant response rating, Canada Thistle ([1]; 16 g ai/ha): 80
- Plant response rating, Canada Thistle ([1]; 31 g ai/ha): 90
- Plant response rating, Canada Thistle ([1]; 62 g ai/ha): 98
- Plant response rating, Canada Thistle ([1]; 125 g ai/ha): 90
- Plant response rating, Speedwell ([2]; 16 g ai/ha): 55
- Plant response rating, Speedwell ([2]; 31 g ai/ha): 65
- Plant response rating, Speedwell ([2]; 62 g ai/ha): 75
- Plant response rating, Speedwell ([2]; 125 g ai/ha): 90
- Plant response rating, Mustard, Wild ([3]; 16 g ai/ha): 98
- Plant response rating, Mustard, Wild ([3]; 31 g ai/ha): 100
- Plant response rating, Mustard, Wild ([3]; 62 g ai/ha): 100
- Plant response rating, Mustard, Wild ([3]; 125 g ai/ha): 100
- Plant response rating, Field Violet ([4]; 16 g ai/ha): 70
- Plant response rating, Field Violet ([4]; 31 g ai/ha): 80
- Plant response rating, Field Violet ([4]; 62 g ai/ha): 85
- Plant response rating, Field Violet ([4]; 125 g ai/ha): 85
- Plant response rating, Cutleaf Geranium ([5]; 16 g ai/ha): 85
- Plant response rating, Cutleaf Geranium ([5]; 31 g ai/ha): 90
- Plant response rating, Cutleaf Geranium ([5]; 62 g ai/ha): 95
- Plant response rating, Cutleaf Geranium ([5]; 125 g ai/ha): 95
- Plant response rating, Buckwheat, Wild ([6]; 16 g ai/ha): 100
- Plant response rating, Buckwheat, Wild ([6]; 31 g ai/ha): 100
- Plant response rating, Buckwheat, Wild ([6]; 62 g ai/ha): 100
- Plant response rating, Buckwheat, Wild ([6]; 125 g ai/ha): 100
